{"source": "paper PMC5717064", "about": "“Alternative substrate-bound conformation of bacterial solute-binding protein involved in the import of mammalian host glycosaminoglycans” (Scientific Reports, 2017)", "key": {"[1]": {"target": "T1, Smon0121-Smon0122/Smon0120-Smon0120 (Streptobacillus moniliformis, UniProt D1AWD7)", "T1 construct": "gene Smon_0120", "T1 sequence (D1AWD7 entry or part of it)": "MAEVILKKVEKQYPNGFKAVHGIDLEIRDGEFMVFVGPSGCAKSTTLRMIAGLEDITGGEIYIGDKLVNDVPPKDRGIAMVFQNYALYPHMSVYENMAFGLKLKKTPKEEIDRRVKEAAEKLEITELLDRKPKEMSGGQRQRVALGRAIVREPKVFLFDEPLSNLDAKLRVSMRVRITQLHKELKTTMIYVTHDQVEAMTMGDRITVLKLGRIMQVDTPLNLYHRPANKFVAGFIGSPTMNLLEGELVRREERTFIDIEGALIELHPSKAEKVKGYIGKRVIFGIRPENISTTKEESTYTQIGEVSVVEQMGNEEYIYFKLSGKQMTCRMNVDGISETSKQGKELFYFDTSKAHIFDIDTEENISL", "T1 sequence (D1AWD8 entry or part of it, further chain)": "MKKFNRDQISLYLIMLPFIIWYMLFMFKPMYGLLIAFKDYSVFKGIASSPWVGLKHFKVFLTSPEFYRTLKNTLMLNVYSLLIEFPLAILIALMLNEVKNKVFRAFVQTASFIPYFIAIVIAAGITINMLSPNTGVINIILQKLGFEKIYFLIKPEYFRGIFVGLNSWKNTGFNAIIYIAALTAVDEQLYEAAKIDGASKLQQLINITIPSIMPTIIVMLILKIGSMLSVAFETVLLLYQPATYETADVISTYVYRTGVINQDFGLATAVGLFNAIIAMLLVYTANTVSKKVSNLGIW", "T1 sequence (D1AWE0 entry or part of it, further chain)": "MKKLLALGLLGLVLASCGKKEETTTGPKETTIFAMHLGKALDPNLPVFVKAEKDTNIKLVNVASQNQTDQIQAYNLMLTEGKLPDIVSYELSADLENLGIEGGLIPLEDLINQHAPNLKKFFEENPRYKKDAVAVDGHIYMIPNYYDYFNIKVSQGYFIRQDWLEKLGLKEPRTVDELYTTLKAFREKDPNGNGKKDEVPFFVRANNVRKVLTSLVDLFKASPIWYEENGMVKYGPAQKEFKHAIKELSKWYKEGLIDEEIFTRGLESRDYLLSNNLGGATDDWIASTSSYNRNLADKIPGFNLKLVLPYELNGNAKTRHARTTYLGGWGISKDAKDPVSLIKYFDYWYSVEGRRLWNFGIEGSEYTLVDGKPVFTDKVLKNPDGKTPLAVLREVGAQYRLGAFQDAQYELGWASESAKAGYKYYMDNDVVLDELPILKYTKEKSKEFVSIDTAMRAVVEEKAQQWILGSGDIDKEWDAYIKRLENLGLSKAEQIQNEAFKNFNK", "T1 sequence (D1AWD9 entry or part of it, further chain)": "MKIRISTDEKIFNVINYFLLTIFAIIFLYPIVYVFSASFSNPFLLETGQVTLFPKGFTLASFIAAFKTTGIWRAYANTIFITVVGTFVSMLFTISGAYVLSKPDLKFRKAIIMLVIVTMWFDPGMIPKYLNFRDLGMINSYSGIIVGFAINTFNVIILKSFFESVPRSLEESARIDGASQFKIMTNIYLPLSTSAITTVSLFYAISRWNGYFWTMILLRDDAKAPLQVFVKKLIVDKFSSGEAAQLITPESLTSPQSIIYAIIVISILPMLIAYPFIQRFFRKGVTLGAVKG", "conditions": "in presence of Smon0123 and disaccharide ligands"}, "[2]": {"target": "T2, Smon0123 (full-length) (Streptobacillus moniliformis, UniProt D1AWE0)", "T2 construct": "gene Smon_0123; full-length protein, expressed in E. coli, purified by TALON, Resource Q and Superdex 200; tag not described; about 57 kDa, monomer", "T2 sequence (D1AWE0 entry or part of it)": "as the sequence (D1AWE0 entry or part of it, further chain) above", "assay": "intrinsic tryptophan fluorescence titration", "format": "binding", "conditions": "0.1 μM protein, 0-20 μM ligand, excitation 280 nm"}, "[3]": {"target": "T3, Smon0123 (N-18/C-5) (Streptobacillus moniliformis, UniProt D1AWE0)", "T3 construct": "gene Smon_0123; N-terminal 18 and C-terminal 5 residues truncated (starts Met1-Lys19), expressed in E. coli, purified by DEAE and Superdex 200", "T3 sequence (D1AWE0 entry or part of it)": "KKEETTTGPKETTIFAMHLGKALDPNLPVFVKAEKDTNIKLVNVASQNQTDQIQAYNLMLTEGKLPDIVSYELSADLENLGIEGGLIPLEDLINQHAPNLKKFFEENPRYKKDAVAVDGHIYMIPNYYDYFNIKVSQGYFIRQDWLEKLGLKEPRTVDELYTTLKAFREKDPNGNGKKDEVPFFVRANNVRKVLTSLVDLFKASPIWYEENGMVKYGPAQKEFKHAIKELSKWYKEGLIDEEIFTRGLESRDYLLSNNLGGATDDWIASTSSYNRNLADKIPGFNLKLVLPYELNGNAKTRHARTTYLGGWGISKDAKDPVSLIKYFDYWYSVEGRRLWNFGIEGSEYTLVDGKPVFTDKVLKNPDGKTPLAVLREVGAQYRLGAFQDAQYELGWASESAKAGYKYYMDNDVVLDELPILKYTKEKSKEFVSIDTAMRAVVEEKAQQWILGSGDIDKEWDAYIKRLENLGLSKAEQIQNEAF", "assay": "X-ray crystallography, […] Å", "format": "binding", "conditions": "pH 7.5, 20 °C, calcium bound; cleft between N and C domains"}, "[4]": {"target": "T3, Smon0123 (N-18/C-5)", "assay": "X-ray crystallography, […] Å", "format": "binding", "conditions": "pH 7.5; crystallised with CΔ4S6S, CΔ4S found in the cleft (contaminant or desulfation); construct printed only as Smon0123; not deposited"}}, "data": [{"smiles": "Nc1ncnc2c1ncn2[C@@H]1O[C@H](COP(=O)(O)OP(=O)(O)OP(=O)(O)O)[C@@H](O)[C@H]1O", "note": "[ATP]", "values": [{"measurement": "molybdenum blue phosphate release, proteoliposomes", "setting": "[1]", "value": "phosphate ion concentration generated through ATP hydrolysis in the presence of Smon0123 and ligands"}]}, {"smiles": "CC(=O)N[C@H]1C(O)O[C@H](COS(=O)(=O)O)[C@H](OS(=O)(=O)O)[C@@H]1O[C@@H]1OC(C(=O)O)=C[C@H](O)[C@H]1O", "note": "(stereo partly shown) [CΔ4S6S]", "values": [{"measurement": "Kd", "setting": "[2]", "value": "3.86 ± 0.243", "unit": "µM"}, {"measurement": "X-ray crystallography, 1.95 Å", "setting": "[3]", "value": "The coordinates and structure factors of Smon0123/CΔ4S6S have been deposited in the Protein Data Bank"}]}, {"smiles": "CC(=O)N[C@H]1C(O)O[C@H](CO)[C@H](OS(=O)(=O)O)[C@@H]1O[C@@H]1OC(C(=O)O)=C[C@H](O)[C@H]1O", "note": "(stereo partly shown) [CΔ4S]", "values": [{"measurement": "X-ray crystallography, 2.50 Å", "setting": "[4]", "value": "the protein was found to interact with C∆4S but not C∆4S6S in the cleft"}]}]}
